# Tests used:
# [1] = tested on: yhcRQP-luxCDABE gene fusion in strain DPD2437 (yhcS−); test: Bioluminescence response of yhcRQP-luxCDABE gene fusion; assay type: cell-based, E. coli; settings: LB pH 7.0, sodium salt
# Excerpt: (§1) Plasmid pDEW655 was constructed by ligating an E. coli chromosomal segment between nucleotides 3385829 and 3386761 according to the E. coli genomic sequence, which contains the promoter region of the putative yhcRQP operon and the entire yhcR gene and the 5′ end of the yhcQ gene, to the luxCDABE genes parental plasmid, pDEW201 (Gonye et al. U.S. Patent Application Publication 20030219736). Thus, this gene fusion will report on expression of the yhcQ gene and accordingly any other genes cotranscribed with it. Plasmid pDEW655 was moved to E. coli strains MG1655 and DPD2433 by transformation, selecting for Ampicillin resistance to generate strains DPD2436 and DPD2437, respectively. The bioluminescent response of these two strains to pHBA was tested.
# [2] = tested on: yhcRQP-luxCDABE gene fusion in strain DPD2436 (yhcS+); test: as above; assay type: cell-based, E. coli; settings: LB pH 7.0, sodium salt
# Excerpt: as §1
smiles,measurement,setting,value
"O=C(O)c1ccc(O)cc1 [pHBA, para-hydroxybenzoic acid]",RLU,"[1]; [pHBA] 1.6, thirty minutes",1.02 RLU
same,RLU,"[1]; [pHBA] 3.1, thirty minutes",1.16 RLU
same,RLU,"[1]; [pHBA] 6.2, thirty minutes",1.42 RLU
same,RLU,"[1]; [pHBA] 12.5, thirty minutes",1.82 RLU
same,RLU,"[1]; [pHBA] 25, thirty minutes",1.59 RLU
same,RLU,"[1]; [pHBA] 50, thirty minutes",0.614 RLU
same,RLU,"[1]; [pHBA] 100, thirty minutes",0.045 RLU
same,RLU,"[2]; [pHBA] 1.6, thirty minutes",6.72 RLU
same,RLU,"[2]; [pHBA] 3.1, thirty minutes",10.2 RLU
same,RLU,"[2]; [pHBA] 6.2, thirty minutes",16.2 RLU
same,RLU,"[2]; [pHBA] 12.5, thirty minutes",30.8 RLU
same,RLU,"[2]; [pHBA] 25, thirty minutes",66.6 RLU
same,RLU,"[2]; [pHBA] 50, thirty minutes",91.7 RLU
same,RLU,"[2]; [pHBA] 100, thirty minutes",0.437 RLU
